Here are results for 5 compounds from patent US20100029973A1, “Fatty acid analogues for equilibrating bone mineral density” (priority 2005, published 2010).

Data set [1] can be described thus: degradation time in vivo of ω-oxidation-blocked fatty acid analogue. The settings on record: triple bond at methyl end blocking ω-oxidation. An excerpt: ω-oxidation is believed to be the main pathway for degradation of the fatty acid analogues as described with a block in the X position. Experiments were thus performed where R′ was changed to block w-oxidation, by introducing a triple bond at the methyl end of the fatty acid analogue. […] This is important for the use of the fatty acid analogues in pharmaceutical preparation, as it may potentiate the effects of the β-oxidizable fatty acid analogues by further slowing down their breakdown.

The next data set deals with femoral BMD. The data set can be described thus: femoral BMD in rats by DXA. The format is in vivo, rat. The settings on record: female Fischer rats, 50 mg/kg body weight, intragastric gavage, 4 months. The method, then: Fifty female Fischer rats were divided into 5 groups and were given methocel (control group), Wyeth 14,643, fenofibrate, tetradecylthioacetic acid (TTA) and pioglitazone (50 mg/kg body weight) by intragastric gavage for 4 months. Body weight was registered throughout the study. BMD was measured by double x-ray absorptiometry (DXA). Histomorhometry of femur was performed, and mechanical strength in the femoral shaft and collum femoris was measured.

Data set [2] deals with preosteoclast cell line RAW264.7. Nature of the data set: proliferation of preosteoclast cell line RAW264.7. The format is cell-based.
Data set [3] deals with preosteoblast cell line MC3T3-E1. The data set can be described thus: release of OPG, RANKL and IL6 from preosteoblast cell line MC3T3-E1. In kind it is cell-based. The settings on record: preosteoblasts (MC3T3-E1). The text has this:
The effect of the PPAR agonists on release of osteoprotegerin (OPG), RANKL and IL6 from the preosteoblast cell line MC3T3-E1 was investigated. […] Wyeth 14643, fenofibrate and TTA were also shown to stimulate OPG release and inhibit IL6 release from preosteoblasts, while no effects on RANKL could be detected.

Another data set deals with human monocytes. The data set can be described thus: differentiation of human monocytes into osteoclasts. In kind it is cell-based.
Data set [4] deals with mitochondrial β-oxidation in the liver. The data set can be described thus: activity of mitochondrial β-oxidation in the liver. Particulars: fatty acid analogues with sulphur in 3, 5, 7 position vs palmitic acid control. An excerpt:
Although all fatty acid anagoges with an odd positioning of the β-oxidation blocker X away from the carboxylic end block β-oxidation, the extent of their biological effect may be variable. This is due to the difference in biological degradation time of the various compounds. The inventors have done experiments to show the effect of moving X further from the carboxylic fatty acid end. In these experiments the activity (in nmol/min/mg/protein) of mitochondrial β-oxidation in the liver of fatty acid analogues was measured with sulphur in the 3, 5 and 7 positions relative to the carboxyl end. The activities were 0.81 for sulphur in the 3rd position, 0.61 for sulphur in the 5th position, 0.58 for sulphur in the 7th position, and 0.47 for palmitic acid, the non β-oxidation blocking control. […] However, as the decline is great for going from the 3rd to 5th position, but small going from the 5th to 7th position, it is reasonable to assume that this decline will continue to be less as one moves out the chain, and thus that it will be very far out indeed before no effect (compared to the control) is seen at all.

In the case of `CC#CCCCCCCCCCCCSCC` [3-thia-15-heptadecyn], the “degradation time in vivo” value in data set [1] is recorded as “substantially increased degradation time in vivo”.
On to `Cc1cccc(Nc2cc(Cl)nc(SCC(=O)O)n2)c1C` [Wyeth 14,643], for which the “change in femoral BMD versus control rats” value (“change” for short) in the data set with femoral BMD worked out at 7%. Moreover, in data set [2], the “proliferation of RAW264.7” value is “inhibited the proliferation”. In data set [3], the IL6 release entry is on record as “stimulated”, the OPG release result is recorded as “stimulated” and the RANKL release result was “no effects”. Moreover, in data set [3] (listed as Wyeth 14643), the IL6 release entry is recorded as “inhibit” and the OPG release entry is recorded as “stimulate”. Also, in the data set with human monocytes, the “differentiation of human monocytes into osteoclasts” value was “inhibit the differentiation of human monocytes into osteoclasts in a dose-dependent manner”.
`CC(C)OC(=O)C(C)(C)Oc1ccc(C(=O)c2ccc(Cl)cc2)cc1` [fenofibrate]: the “change” value in the data set on femoral BMD stood at 5.7%.
As to `CCCCCCCCCCCCCCCC(=O)O` [palmitic acid], in data set [4], the “activity of mitochondrial β-oxidation in the liver” value amounted to 0.47 nmol/min/mg/protein.
As to `CCc1ccc(CCOc2ccc(CC3SC(=O)NC3=O)cc2)nc1` (stereo not drawn) [pioglitazone], the “change” value with femoral BMD is recorded as −3%.
